22 compounds from PubChem BioAssay AID296 (DTP/NCI, 2004) can be followed below.

In this test the test system is MX-1 breast xenograft, nude mice, tumor weight T/C. Nature of the test: NCI In Vivo Anticancer Drug Screen. Data for tumor model Human Mammary Carcinoma MX-1 Xenograft (intrarenal inoculation) in NU/NU Swiss (nude) mice. The following applies: endpoint: mean tumor weight change, higher = larger tumour. Put shortly:
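Activity is given as a ratio, with each measurement in the compound-treated arm divided by the matching measurement in vehicle-dosed controls. Tumour size or survival serves as the measured parameter.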

The mark [1] stands for this setting: dose: 150.0 mg/kg/injection, schedule: Q04DX003 (sc), vehicle: saline with Tween-80.
Where [2] appears, read: dose: 300.0 mg/kg/injection, schedule: Q04DX003 (sc), vehicle: saline with Tween-80.
The mark [3] stands for this setting: dose: 600.0 mg/kg/injection, schedule: Q04DX003 (sc), vehicle: saline with Tween-80.
Where [4] appears, read: dose: 1200.0 mg/kg/injection, schedule: Q04DX003 (sc), vehicle: saline with Tween-80.
The mark [5] stands for this setting: dose: 75.0 mg/kg/injection, schedule: Q04DX003 (sc), vehicle: saline with Tween-80.
The mark [6] stands for this setting: dose: 16.0 mg/kg/injection, schedule: Q04DX003 (sc), vehicle: saline with Tween-80.
[7] abbreviates: dose: 32.0 mg/kg/injection, schedule: Q04DX003 (sc), vehicle: saline with Tween-80.
[8] abbreviates: dose: 2400.0 mg/kg/injection, schedule: Q04DX003 (sc), vehicle: saline with Tween-80.

Where “and” joins values, the source holds several entries; their conditions need not be identical. Equal values may be shown once. Results filed as inconclusive are left out.

For the compound `CC(=O)C1(O)Cc2c(O)c3c(c(O)c2C(OC2CC(N)C(O)C(C)O2)C1)C(=O)c1ccccc1C3=O` (centres undefined), the T/C is 104 % of control (dose: 0.5 mg/kg/injection, schedule: Q04DX003 (sc), vehicle: water) and 100 % of control (dose: 1.0 mg/kg/injection, schedule: Q04DX003 (sc), vehicle: water).

On to `CC[C@]1(O)C[C@H]2CN(CCc3c([nH]c4ccccc34)[C@@](C(=O)OC)(c3cc4c(cc3OC)N(C=O)[C@H]3[C@@](O)(C(=O)OC)[C@H](OC(C)=O)[C@]5(CC)C=CCN6CC[C@]43[C@@H]65)C2)C1`, for which the T/C runs as follows: (dose: 0.5 mg/kg/injection, schedule: Q01DX010 (sc), vehicle: saline) -100 % of control and -81 % of control; (dose: 1.0 mg/kg/injection, schedule: Q01DX010 (sc), vehicle: saline) -99 % of control.

For `CN(C)P(=O)(Oc1ccccc1)N(C)C`, the T/C by setting is: under setting [1], 97 % of control; under setting [2], 107 % of control; under setting [3], 113 % of control; under setting [4], 71 % of control.

As to `CC(=Nc1ccccc1)C1=C(O)C(Cc2ccccc2)NC1=O` (centres undefined), the T/C reads like this: under setting [1], 92 % of control; under setting [2], 63 % of control; under setting [3], 48 % of control; under setting [4], 44 % of control.

Turning to `S=C(Nc1ccc(Cl)c(Cl)c1)N1c2ccccc2-n2cccc2C1c1cccnc1` (centres undefined), the T/C runs as follows: (dose: 300.0 mg/kg/injection, schedule: Q04DX003 (sc), vehicle: Klucel (hydroxypropylcellulose) (HPC)) 123 % of control; (dose: 600.0 mg/kg/injection, schedule: Q04DX003 (sc), vehicle: Klucel (hydroxypropylcellulose) (HPC)) 89 % of control; (dose: 1200.0 mg/kg/injection, schedule: Q04DX003 (sc), vehicle: Klucel (hydroxypropylcellulose) (HPC)) 108 % of control; (dose: 2400.0 mg/kg/injection, schedule: Q04DX003 (sc), vehicle: Klucel (hydroxypropylcellulose) (HPC)) 108 % of control.

For the compound `OCC12COCN1COC2`, the T/C was 80 % of control (dose: 300.0 mg/kg/injection, schedule: Q04DX003 (sc), vehicle: saline); 102 % of control (dose: 600.0 mg/kg/injection, schedule: Q04DX003 (sc), vehicle: saline); 109 % of control (dose: 1200.0 mg/kg/injection, schedule: Q04DX003 (sc), vehicle: saline); 122 % of control (dose: 2400.0 mg/kg/injection, schedule: Q04DX003 (sc), vehicle: saline).

Take `Nc1nc(N)c2c(Cl)c(CNc3ccc(Cl)c(Cl)c3)ccc2n1`: the T/C was 80 % of control (dose: 18.75 mg/kg/injection, schedule: Q04DX003 (sc), vehicle: saline with Tween-80); 87 % of control (dose: 37.5 mg/kg/injection, schedule: Q04DX003 (sc), vehicle: saline with Tween-80); 93 % of control under setting [5]; 111 % of control under setting [1].

Take `COc1cccc2c1C(=O)c1c(O)c3c(c(O)c1C2=O)C[C@@](O)(C(=O)CO)C[C@@H]3OC1CC(N(C)C)C(O)C(C)O1` (some centres undefined): the T/C (dose: 3.0 mg/kg/injection, schedule: Q01DX010 (sc), vehicle: water) was 211 % of control and the T/C (dose: 6.0 mg/kg/injection, schedule: Q01DX010 (sc), vehicle: water) is 227 % of control.

`CN(C)CCN1C(=O)c2cccc3cc(N)cc(c23)C1=O`: the T/C under setting [6] was 80 % of control and the T/C under setting [7] is 78 % of control.

With `ClCCCN1CCN(CCCl)CC1`, the T/C (dose: 7.5 mg/kg/injection, schedule: Q04DX003 (sc), vehicle: saline) is 8 % of control and 10 % of control and 31 % of control.

Consider `CN(Cc1cnc2nc(N)nc(N)c2n1)c1ccc(C(=O)N[C@@H](CCC(=O)O)C(=O)O)cc1`, for which the T/C is, setting by setting: (dose: 0.5 mg/kg/injection, schedule: Q01DX010 (sc), vehicle: sodium bicarbonate) 86 % of control; (dose: 1.0 mg/kg/injection, schedule: Q01DX010 (sc), vehicle: sodium bicarbonate) 175 % of control.

Consider `O=C(O)c1cc(C(=O)O)c(C(=O)O)cc1C(=O)O.[NH2-].[NH2-].[NH2-].[NH2-].[Pt+2].[Pt+2]`, for which the T/C by setting is: (dose: 1.25 mg/kg/injection, schedule: Q04DX003 (ip), vehicle: water) 113 % of control; (dose: 5.0 mg/kg/injection, schedule: Q04DX003 (ip), vehicle: water) 97 % of control; (dose: 10.0 mg/kg/injection, schedule: Q04DX003 (ip), vehicle: water) 60 % of control and 76 % of control; (dose: 20.0 mg/kg/injection, schedule: Q04DX003 (ip), vehicle: water) 66 % of control; (dose: 40.0 mg/kg/injection, schedule: Q04DX003 (ip), vehicle: water) 26 % of control; (dose: 80.0 mg/kg/injection, schedule: Q04DX003 (ip), vehicle: water) 15 % of control.

On to `CC1CN1P1(N2CC2C)=NP(N2CC2C)(N2CC2C)=NP(N2CC2C)(N2CC2C)=N1` (centres undefined), for which the T/C was 70 % of control (dose: 18.75 mg/kg/injection, schedule: Q01DX010 (sc), vehicle: saline); 50 % of control (dose: 25.0 mg/kg/injection, schedule: Q01DX010 (sc), vehicle: saline); 41 % of control (dose: 37.5 mg/kg/injection, schedule: Q01DX010 (sc), vehicle: saline); 26 % of control (dose: 50.0 mg/kg/injection, schedule: Q01DX010 (sc), vehicle: saline); 4 % of control (dose: 75.0 mg/kg/injection, schedule: Q01DX010 (sc), vehicle: saline); -7 % of control (dose: 100.0 mg/kg/injection, schedule: Q01DX010 (sc), vehicle: saline). Also, under “dose: 150.0 mg/kg/injection, schedule: Q04DX003 (sc), vehicle: saline”, the T/C is 13 % of control.

For the compound `COC1=C(NC(C)=O)C(=O)c2nc(-c3nc(C(=O)O)c(C)c(-c4ccc(OC)c(OC)c4O)c3N)ccc2C1=O`, the T/C is 118 % of control (dose: 50.0 mg/kg/injection, schedule: Q04DX003 (sc), vehicle: Klucel (hydroxypropylcellulose) (HPC)) and 47 % of control (dose: 100.0 mg/kg/injection, schedule: Q04DX003 (sc), vehicle: Klucel (hydroxypropylcellulose) (HPC)).

Regarding `CC(Cc1ccc(O)cc1)NCC(O)c1ccc(O)c(O)c1` (centres undefined), the T/C is, setting by setting: under setting [5], 91 % of control; under setting [1], 96 % of control; under setting [3], 67 % of control; under setting [4], 82 % of control; under setting [8], 45 % of control.

Turning to `Cc1ccc2c(c1)C(=O)N(CC[P+](c1ccccc1)(c1ccccc1)c1ccccc1)C2=O`, the T/C (dose: 25.0 mg/kg/injection, schedule: Q04DX003 (sc), vehicle: Klucel (hydroxypropylcellulose) (HPC)) is 110 % of control.

For `COc1ccc(CC2C(=O)NC(C)C(=O)N(C)C3Cc4ccc(cc4)Oc4cc(ccc4O)CC(C(=O)NC(C)C(=O)NC(C)C(=O)N2C)N(C)C3=O)cc1` (centres undefined), the T/C by setting is: (dose: 8.0 mg/kg/injection, schedule: Q04DX003 (sc), vehicle: saline with Tween-80) 28 % of control and 44 % of control and 47 % of control; under setting [6], 20 % of control and 26 % of control and 43 % of control; under setting [7], 6 % of control and 18 % of control.

For `Cc1c(CNc2ccc(C(=O)NC(CC(=O)O)C(=O)O)cc2)ccc2nc(N)nc(N)c12` (centres undefined), the T/C is, setting by setting: (dose: 6.0 mg/kg/injection, schedule: Q04DX003 (sc), vehicle: saline with Tween-80) 29 % of control; (dose: 48.0 mg/kg/injection, schedule: Q04DX003 (sc), vehicle: saline with Tween-80) 13 % of control and 33 % of control; (dose: 72.0 mg/kg/injection, schedule: Q04DX003 (sc), vehicle: saline with Tween-80) 18 % of control and 28 % of control.

Turning to `O=C[C@@H](CO)O[C@H](C=O)c1c[nH]c(=O)[nH]c1=O`, the T/C runs as follows: (dose: 18.75 mg/kg/injection, schedule: Q04DX003 (ip), vehicle: saline) 91 % of control; (dose: 37.5 mg/kg/injection, schedule: Q04DX003 (ip), vehicle: saline) 59 % of control; (dose: 75.0 mg/kg/injection, schedule: Q04DX003 (ip), vehicle: saline) 35 % of control.

In the case of `CCCCCC[C@H]([C@H](C)O)n1cnc2c(N)ncnc21`, the T/C was 43 % of control (dose: 50.0 mg/kg/injection, schedule: Q01DX010 (sc), vehicle: Klucel (hydroxypropylcellulose) (HPC)); 116 % of control (dose: 100.0 mg/kg/injection, schedule: Q01DX010 (sc), vehicle: Klucel (hydroxypropylcellulose) (HPC)); 94 % of control (dose: 200.0 mg/kg/injection, schedule: Q01DX010 (sc), vehicle: Klucel (hydroxypropylcellulose) (HPC)).

`CC(=O)Nc1ccc(C(=O)C=O)cc1`: the T/C (dose: 200.0 mg/kg/injection, schedule: Q01DX010 (sc), vehicle: saline with Tween-80) was 55 % of control.

Regarding `OCC1OC(n2cnc3cc(Cl)c(Cl)cc32)C(O)C1O` (centres undefined), the T/C was 156 % of control under setting [2]; 114 % of control and 118 % of control under setting [3]; 114 % of control under setting [4]; 66 % of control under setting [8].
